Measured values published in PubChem BioAssay (NCI).
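Values below derive from 48-hour exposures of cells grown in 96-well plates, with endpoints linearly interpolated between the two concentrations bracketing the appropriate inhibition level. GI50: concentration for 50% inhibition of growth. TGI marks complete inhibition of growth.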

Key:
Experiment in all cases: DTP human tumour cell line panel, 48 h
[1] = tested on: MDA-MB-231 breast
[2] = tested on: SN12C renal
[3] = tested on: HT29 colon
[4] = tested on: M14 melanoma
[5] = tested on: DU-145 prostate
[6] = tested on: HCT-15 colon
[7] = tested on: CCRF-CEM leukemia
[8] = tested on: OVCAR-4 ovarian
[9] = tested on: T-47D breast
[10] = tested on: U251 CNS
[11] = tested on: SK-MEL-5 melanoma
[12] = tested on: SK-MEL-28 melanoma
[13] = tested on: NCI-H522 lung
[14] = tested on: SF-268 CNS
[15] = tested on: IGROV1 ovarian
[16] = tested on: HL-60(TB) leukemia
[17] = tested on: ACHN renal
[18] = tested on: SK-MEL-2 melanoma
[19] = tested on: COLO 205 colon
[20] = tested on: A549 NSCLC
[21] = tested on: LOX IMVI melanoma
[22] = tested on: OVCAR-5 ovarian
[23] = tested on: MCF7 breast
[24] = tested on: SF-295 CNS
[25] = tested on: OVCAR-3 ovarian
[26] = tested on: HCT-116 colon
[27] = tested on: RPMI-8226 leukemia
[28] = tested on: MALME-3M melanoma
[29] = tested on: SNB-75 CNS
[30] = tested on: EKVX NSCLC
[31] = tested on: SNB-19 CNS
[32] = tested on: CAKI-1 renal
[33] = tested on: MOLT-4 leukemia
[34] = tested on: HOP-62 NSCLC
[35] = tested on: HS 578T breast
[36] = tested on: HCC-2998 colon
[37] = tested on: KM12 colon
[38] = tested on: 786-0 renal
[39] = tested on: TK-10 renal
[40] = tested on: NCI-H226 lung
[41] = tested on: SK-OV-3 ovarian
[42] = tested on: PC-3 prostate
[43] = tested on: A498 renal
[44] = tested on: NCI-H23 lung
[45] = tested on: MDA-MB-435
[46] = tested on: K-562 leukemia
[47] = tested on: NCI/ADR-RES ovarian
[48] = tested on: NCI-H460 lung
[49] = tested on: SR leukemia
[50] = tested on: HOP-92 NSCLC
[51] = tested on: SW-620 colon
[52] = tested on: UACC-62 melanoma
[53] = tested on: UO-31 renal

Compound: COc1ccc(-n2cc(-c3ccc(OC)c(OC)c3)[nH]c2=O)cc1
- GI50 [1]: > 100 µM
- TGI [1]: > 100 µM
- GI50 [2]: > 100 µM
- TGI [2]: > 100 µM
- GI50 [3]: > 100 µM
- TGI [3]: > 100 µM
- GI50 [4]: > 100 µM
- TGI [4]: > 100 µM
- GI50 [5]: > 100 µM
- TGI [5]: > 100 µM
- GI50 [6]: > 100 µM
- TGI [6]: > 100 µM
- GI50 [7]: > 100 µM
- TGI [7]: > 100 µM
- GI50 [8]: > 100 µM
- TGI [8]: > 100 µM
- GI50 [9]: > 100 µM
- TGI [9]: > 100 µM
- GI50 [10]: > 100 µM
- TGI [10]: > 100 µM
- GI50 [11]: > 100 µM
- TGI [11]: > 100 µM
- GI50 [12]: > 100 µM
- TGI [12]: > 100 µM
- GI50 [13]: > 100 µM
- TGI [13]: > 100 µM
- GI50 [14]: > 100 µM
- TGI [14]: > 100 µM
- GI50 [15]: > 100 µM
- TGI [15]: > 100 µM
- GI50 [16]: > 100 µM
- TGI [16]: > 100 µM
- GI50 [17]: > 100 µM
- TGI [17]: > 100 µM
- GI50 [18]: > 100 µM
- TGI [18]: > 100 µM
- GI50 [19]: > 100 µM
- TGI [19]: > 100 µM
- GI50 [20]: > 100 µM
- TGI [20]: > 100 µM
- GI50 [21]: > 100 µM
- TGI [21]: > 100 µM
- GI50 [22]: > 100 µM
- TGI [22]: > 100 µM
- GI50 [23]: > 100 µM
- TGI [23]: > 100 µM
- GI50 [24]: > 100 µM
- TGI [24]: > 100 µM
- GI50 [25]: > 100 µM
- TGI [25]: > 100 µM
- GI50 [26]: > 100 µM
- TGI [26]: > 100 µM
- GI50 [27]: > 100 µM
- TGI [27]: > 100 µM
- GI50 [28]: > 100 µM
- TGI [28]: > 100 µM
- GI50 [29]: 12.1 µM
- TGI [29]: 99.3 µM
- GI50 [30]: > 100 µM
- TGI [30]: > 100 µM
- GI50 [31]: > 100 µM
- TGI [31]: > 100 µM
- GI50 [32]: > 100 µM
- TGI [32]: > 100 µM
- GI50 [33]: > 100 µM
- TGI [33]: > 100 µM
- GI50 [34]: > 100 µM
- TGI [34]: > 100 µM
- GI50 [35]: > 100 µM
- TGI [35]: > 100 µM
- GI50 [36]: > 100 µM
- TGI [36]: > 100 µM
- GI50 [37]: > 100 µM
- TGI [37]: > 100 µM
- GI50 [38]: > 100 µM
- TGI [38]: > 100 µM
- GI50 [39]: > 100 µM
- TGI [39]: > 100 µM
- GI50 [40]: > 100 µM
- TGI [40]: > 100 µM
- GI50 [41]: > 100 µM
- TGI [41]: > 100 µM
- GI50 [42]: > 100 µM
- TGI [42]: > 100 µM
- GI50 [43]: > 100 µM
- TGI [43]: > 100 µM
- GI50 [44]: > 100 µM
- TGI [44]: > 100 µM
- GI50 [45]: > 100 µM
- TGI [45]: > 100 µM
- GI50 [46]: > 100 µM
- TGI [46]: > 100 µM
- GI50 [47]: > 100 µM
- TGI [47]: > 100 µM
- GI50 [48]: > 100 µM
- TGI [48]: > 100 µM
- GI50 [49]: > 100 µM
- TGI [49]: > 100 µM
- GI50 [50]: > 100 µM
- TGI [50]: > 100 µM
- GI50 [51]: > 100 µM
- TGI [51]: > 100 µM
- GI50 [52]: > 100 µM
- TGI [52]: > 100 µM
- GI50 [53]: > 100 µM
- TGI [53]: > 100 µM
